# Test results reported in patent US11643385B2, “Polymorphic forms of RAD1901-2HCl” (RADIUS PHARMACEUTICALS, INC., priority 2018, dated 2023).
# Where two headings read alike, the source gives them in different places. Marks after values point to notes of the source that are not given here.
# What was measured:
# Format in all cases: physicochemical
# [1] = Storage at elevated temperature/humidity, solid form checked by XRPD
# Experimental: Samples 1 and 2 were characterized by XRPD at various conditions. XRPD patterns were collected for the samples at ambient condition as the samples were provided; at variable temperature (VT-XRPD); at variable humidity (VH-XRPD); after the samples were exposed to 40° C./75% RH for 1 week and 25° C./97% RH for 1 week, respectively; and after a GVS measurement wherein the samples were exposed to 0-90% RH. Samples 1 and 2 were also characterized by ^1H NMR, TGA, DSC, KF, IC, GVS (exposed to 0-90% RH), PLM, SEM, and HPLC (Table 5). […]
# [2] = Gravimetric Vapour Sorption (GVS) with XRPD post-GVS; details: listed as Pattern B
# Experimental: Sorption isotherms were obtained using a SMS DVS Intrinsic moisture sorption analyzer, controlled by DVS Intrinsic Control software v1.0.1.2 (or v 1.0.1.3). The sample temperature was maintained at 25° C. by the instrument controls. The humidity was controlled by mixing streams of dry and wet nitrogen, with a total flow rate of 200 ml/min. The relative humidity was measured by a calibrated Rotronic probe (dynamic range of 1.0-100% RH), located near the sample. The weight change, (mass relaxation) of the sample as a function of % RH was constantly monitored by the microbalance (accuracy ±0.005 mg).
# A sample (e.g., 20 mg) was placed in a tared mesh stainless steel basket under ambient conditions. The sample was loaded and unloaded at 40% RH and 25° C. (typical room conditions). A moisture sorption isotherm was performed as outlined below (2 scans giving 1 complete cycle). Standard isotherms were performed at 25° C. at 10% RH intervals over a 0-90% RH range. Data analysis was carried out using Microsoft Excel using DVS Analysis Suite v6.2 (or 6.1 or 6.0).
# In a cycle of 2 scans, the first scan was performed with adsorption of 40-90% RH, followed by a second scan with desorption of 90-0% RH and adsorption of 0-40% RH, with intervals of 10% RH, at 25° C. with stability dm/dt of 0.002% ° C./min. The sorption time was 6 hr time out.
# The sample was recovered after completion of the isotherm and re-analyzed by XRPD. Custom moisture sorption methods were also performed at 25° C. at fixed % RH intervals over a 0-95% RH range, with the purpose to fully understand the sorption/desorption behavior of the compound under elevated conditions.
# To further explore the humidity behavior of Sample 1 (Form 1) upon exposure to high RH (>90%), custom GVS experiments were designed and carried out. Initially, the sample was treated by holding at 90 and then 95% RH for ˜12 hours to see if hydrate formation could be observed (HighRH method of Steps 1 and 2 of Table 2, FIGS. 6C-6D).
# To test the stability of the hydrated state, GVS method HighRH_Desorp_3 was designed with a desorption step and subsequent adsorption (see Table 2 with steps 1-4, FIGS. 6E-6F).
# Finally, to ensure complete conversion to the anhydrous and hydrated forms, a GVS experiment was designed to increase both the length of the desorption step at 0% RH, and the adsorption step at 95% RH, respectively (Table 3). Based on the weight stabilization observed in the kinetic plots for Sample 1 in HighRH and HighRH_Desorp_3 methods discussed above (FIGS. 6D and 6F), a holding time of 800 mins at 0% RH and 1600 mins at 95% RH were chosen. A double cycle was also recorded for this experiment to observe whether the sample would return to Form 1 or form a mixed anhydrous/hydrated species (see Table 3, FIGS. 6G-6H).
# [3] = Solubility assessment and polymorph screen on amorphous RAD1901-2HCl; details: for XRPD post 50° C./RT (form): after maturation at 50° C./RT; for XRPD post 25° C. (form): after maturation at 25° C.; for Solubility observation at 10 vol.: amorphous RAD1901-2HCl, 10 vol. solvent (solvent per sample ID)
# Experimental: In a scale-up preparation of amorphous RAD1901-2HCl, RAD1901-2HCl (600 mg) was dissolved in water (20 vol., 12 mL) and filtered to remove any remaining solid particles. The solution was then aliquoted into 24 HPLC vials, frozen in a dry ice/acetone bath and the solvent removed by lyophilisation. Solids produced by lyophilization were used directly in solubility assessment and polymorph screens in Example 4.
# Amorphous RAD1901-2HCl prepared as described in Example 3B was used directly in solubility assessment and polymorph screens (Table 15). XRPD patterns were further obtained for amorphous RAD1901-2HCl prepared using other solvents.
# In the polymorph screen of the amorphous RAD1901-2HCl prepared as described in Example 3B, an aliquot of each sample was examined for its morphology under the microscope, both after maturing at 25° C., and after maturing at 50° C./RT. […] In some instances, the sample appeared to be a mixture of various polymorphic forms, e.g. Form 2 and Form 3 (FIGS. 18B-18C), similar to the mixture of Forms 2 and 3 in Sample 2 having an equilibrium between the two solid forms, depending on the prevailing RH.
# [4] = Solubility assessment of amorphous RAD1901-2HCl in water/organic solvent mixtures; details: for XRPD (form) after stirring: after stirring at 25° C. for 72 hours
# Experimental: Samples of amorphous RAD1901-2HCl were prepared in water/organic solvent mixtures containing varying ratios of water. The organic solvents chosen were anhydrous ethanol, methanol and ethyl acetate. The percentage of water in the water/organic solvent mixtures was varied between 0 and 10% (v/v) in order to place a limit on the level of water that can be present during production processes, and to retain formation of Form 1. Above this water activity limit, the hydrated Form 3 will be obtained, as shown by GVS experiments (see FIGS. 6G and 20A). It should be noted that samples prepared in ethyl acetate, were either slurried in anhydrous ethyl acetate, or in water saturated ethyl acetate.
# The water activity values for each water/organic solvent mixture are provided in Table 16, and were calculated using the reference given in Bell, Halling, Enzyme Microbiol. Technol. 1997, 20, 471, incorporated herein by reference.
smiles,measurement,setting,value
CCNCCc1ccc(CN(CC)c2cc(OC)ccc2[C@@H]2CCc3cc(O)ccc3C2)cc1.Cl.Cl [Form 1B],XRPD after storage at 25° C./97% RH for 1 week (solid form),"[1]; 25° C./97% RH, 1 week (7 days), listed as Pattern B",Unchanged post storage at both conditions
same,XRPD after storage at 40° C./75% RH for 1 week (solid form),"[1]; 40° C./75% RH, 1 week (7 days), listed as Pattern B",Unchanged post storage at both conditions
same,GVS total mass change between 0 and 90% RH,[2]; 0-90% RH (Table 17),"Total change in mass of 1.4% wt. between 0 and 90% RH,"
same,XRPD post GVS (uptake 0-90% RH),"[2]; after GVS 0-90% RH, 25° C.",no hysteresis. XRPD post-GVS is consistent with Pattern
CCNCCc1ccc(CN(CC)c2cc(OC)ccc2[C@@H]2CCc3cc(O)ccc3C2)cc1.Cl.Cl [Form 3],Form obtained on exposure to <40% RH for 8 hr,"[1]; <40% RH, 8 hr",Form 2
CCNCCc1ccc(CN(CC)c2cc(OC)ccc2[C@@H]2CCc3cc(O)ccc3C2)cc1.Cl.Cl [Form B16.],XRPD post 50° C./RT (form),[3],Form 3*
CCNCCc1ccc(CN(CC)c2cc(OC)ccc2[C@@H]2CCc3cc(O)ccc3C2)cc1.Cl.Cl [Form B17.],Observation After maturation at 50° C.,[3],Fine
same,XRPD post 50° C./RT (form),[3],Form 1*
CCNCCc1ccc(CN(CC)c2cc(OC)ccc2[C@@H]2CCc3cc(O)ccc3C2)cc1.Cl.Cl [Form B19.],XRPD post 25° C. (form),[3],Form 3
same,Solubility observation at 10 vol.,[3],X (X = suspension)
same,Observation After maturation at 25° C.,[3],Crystal
same,Observation After maturation at 50° C.,[3]; maturation at 50° C./RT,Green
CCNCCc1ccc(CN(CC)c2cc(OC)ccc2[C@@H]2CCc3cc(O)ccc3C2)cc1.Cl.Cl [Form B20.],XRPD post 50° C./RT (form),[3],Form 1
same,Solubility observation at 10 vol.,[3],X (X = suspension)
same,Observation After maturation at 50° C.,[3]; maturation at 50° C./RT,Crystalline
CCNCCc1ccc(CN(CC)c2cc(OC)ccc2[C@@H]2CCc3cc(O)ccc3C2)cc1.Cl.Cl [Form B21.],XRPD post 25° C. (form),[3],Form 1
same,Observation After maturation at 50° C.,[3]; maturation at 50° C./RT,Needle
CCNCCc1ccc(CN(CC)c2cc(OC)ccc2[C@@H]2CCc3cc(O)ccc3C2)cc1.Cl.Cl [Form B22.],XRPD post 25° C. (form),[3],Form 3
same,Solubility observation at 10 vol.,[3],S (S = solution)
same,Observation After maturation at 25° C.,[3],S
same,Observation After maturation at 50° C.,[3]; maturation at 50° C./RT,Green
CCNCCc1ccc(CN(CC)c2cc(OC)ccc2[C@@H]2CCc3cc(O)ccc3C2)cc1.Cl.Cl [Form B23.],XRPD post 25° C. (form),[3],Form 3
same,XRPD post 50° C./RT (form),[3],Form 3
same,Solubility observation at 10 vol.,[3],X (X = suspension)
same,Observation After maturation at 50° C.,[3]; maturation at 50° C./RT,Fine
CCNCCc1ccc(CN(CC)c2cc(OC)ccc2[C@@H]2CCc3cc(O)ccc3C2)cc1.Cl.Cl [Form B24.],XRPD post 25° C. (form),[3],Form 3
same,XRPD post 50° C./RT (form),[3],Form 3
same,Solubility observation at 10 vol.,[3],X (X = suspension)
same,Observation After maturation at 50° C.,[3]; maturation at 50° C./RT,Fine
CCNCCc1ccc(CN(CC)c2cc(OC)ccc2[C@@H]2CCc3cc(O)ccc3C2)cc1.Cl.Cl [Form C1.],XRPD (form) after stirring,[4],Form 3
CCNCCc1ccc(CN(CC)c2cc(OC)ccc2[C@@H]2CCc3cc(O)ccc3C2)cc1.Cl.Cl [Form C2.],XRPD (form) after stirring,[4],Form 1
CCNCCc1ccc(CN(CC)c2cc(OC)ccc2[C@@H]2CCc3cc(O)ccc3C2)cc1.Cl.Cl [Form C3.],XRPD (form) after stirring,[4],Form 1
CCNCCc1ccc(CN(CC)c2cc(OC)ccc2[C@@H]2CCc3cc(O)ccc3C2)cc1.Cl.Cl [Form C4.],XRPD (form) after stirring,[4],Form 1
CCNCCc1ccc(CN(CC)c2cc(OC)ccc2[C@@H]2CCc3cc(O)ccc3C2)cc1.Cl.Cl [Form C5.],Observation After stirring at 25° C. for 72 hours,[4],S
CCNCCc1ccc(CN(CC)c2cc(OC)ccc2[C@@H]2CCc3cc(O)ccc3C2)cc1.Cl.Cl [Form C6.],Observation After stirring at 25° C. for 72 hours,[4],Crystals
same,XRPD (form) after stirring,[4],Form 3*
CCNCCc1ccc(CN(CC)c2cc(OC)ccc2[C@@H]2CCc3cc(O)ccc3C2)cc1.Cl.Cl [Form C7.],Observation After stirring at 25° C. for 72 hours,[4],Crystals
same,XRPD (form) after stirring,[4],Form 2
CCNCCc1ccc(CN(CC)c2cc(OC)ccc2[C@@H]2CCc3cc(O)ccc3C2)cc1.Cl.Cl [Form C8.],Observation After stirring at 25° C. for 72 hours,[4],Crystals
same,XRPD (form) after stirring,[4],Form 2
CCNCCc1ccc(CN(CC)c2cc(OC)ccc2[C@@H]2CCc3cc(O)ccc3C2)cc1.Cl.Cl [Form C9.],Solubility observation at 20 vol.,[4],X (X = suspension)
same,Solubility observation at 30 vol,[4],X (X = suspension)
same,XRPD (form) after stirring,[4],Form 1*
CCNCCc1ccc(CN(CC)c2cc(OC)ccc2[C@@H]2CCc3cc(O)ccc3C2)cc1.Cl.Cl [Form C10.],Solubility observation at 20 vol.,[4],X (X = suspension)
same,Solubility observation at 30 vol,[4],X (X = suspension)
same,XRPD (form) after stirring,[4],Form 3
CCNCCc1ccc(CN(CC)c2cc(OC)ccc2[C@@H]2CCc3cc(O)ccc3C2)cc1.Cl.Cl [amorphous RAD1901-2HCl],Form crystallized in anhydrous ethanol,[4]; anhydrous ethanol,Form 1
same,Form produced by slurrying in anhydrous ethyl acetate,[4]; anhydrous ethyl acetate,Form 1
same,Form crystallized in anhydrous methanol,[4]; anhydrous methanol,Form 2
same,Form produced by slurrying in water-saturated ethyl acetate,"[4]; water-saturated ethyl acetate, water activity 0.77",Form 3
same,Ratio of water/ethanol up to which crystals were Form 1,[4]; water/ethanol,up to 5%
same,Water activity limit above which hydrate Form 3 results instead of Form 1,[4]; water/ethanol,0.39
same,Ratio of water/methanol up to which crystals were Form 2,[4]; water/methanol,≤ 2%
same,Water activity limit above which hydrate Form 3 results instead of Form 2,[4]; water/methanol,0.08
